From US11896574B2, “Treatment of metabolic disorders in feline animals” (Boehringer Ingelheim Vetmedica GmbH, priority 2013, dated 2024)

Assay: Physicochemical properties of the crystalline complex

N#Cc1ccc([C@@H]2O[C@H](CO)[C@@H](O)[C@H](O)[C@H]2O)cc1Cc1ccc(C2CC2)cc1.O=C(O)[C@@H]1CCCN1 [crystalline complex]
tendency to absorb moisture: does not show a high tendency to absorb moisture | physical and chemical stability (various environmental conditions and during production of a medicament): high physical and chemical stability
